Columns and labels:
[1] = Stability at normal conditions; assay type: physicochemical
[2] = molecular target: E. coli RNA polymerase (Escherichia coli, UniProt P0A8T7); assay: RNA polymerase inhibition, radioisotope (3H UTP) labelling transcription assay with calf thymus DNA; assay type: biochemical; conditions: 0.8 μM of 3 with 0.4 μM E. coli RNA polymerase, incubated 15 min, dialysed overnight; native enzyme count = 100%
Procedure: In a typical experiment, the course of transcription of calf thymus DNA by E. coli RNA polymerase was monitored in the presence and absence of the redox system 3. The enzyme aliquot after admixing with 3 was incubated for 15 minutes and then dialyzed overnight. A general transcription assay was then carried out in a medium, which contained ^3H UTP in addition to other nucleotides. The amount of radioactive UTP (uridine triphaspate) incorporated in the transcribed RNA was monitored by scintillation counter and the count, when compared to that obtained on using native enzyme gave the percentage loss of activity.
A mixture containing 0.8 μM solution of 3 (5 μL from 8 μM stock in methanol) and 0.4 μM of E. coli RNA polymerase (5 μl from 4 μM stock) in 1×transcription buffer ^a (5 μL) and 35 μL of milliQ water was incubated for 15 min, and dialysed ^b overnight, 4×Transcription assay mixture ^c (10 μL) was diluted with 10 μL of milliQ water and admixed with 20 μL of treated and dialyzed enzyme. The mixture was incubated for 20 minutes and spotted on to a DE81 filter paper strip ^d, which was pre-coated with EDTA to arrest further transcription. The filter paper strips were allowed to air dry for three hours, washed successively with 5% Na2HPO4 solution (3×200 mL, 10 min. each), distilled water (2×200 mL, 5 min. each) and then with ethanol (2×75 mL). […]

E. coli RNA polymerase, sequence (P0A8T7 whole entry): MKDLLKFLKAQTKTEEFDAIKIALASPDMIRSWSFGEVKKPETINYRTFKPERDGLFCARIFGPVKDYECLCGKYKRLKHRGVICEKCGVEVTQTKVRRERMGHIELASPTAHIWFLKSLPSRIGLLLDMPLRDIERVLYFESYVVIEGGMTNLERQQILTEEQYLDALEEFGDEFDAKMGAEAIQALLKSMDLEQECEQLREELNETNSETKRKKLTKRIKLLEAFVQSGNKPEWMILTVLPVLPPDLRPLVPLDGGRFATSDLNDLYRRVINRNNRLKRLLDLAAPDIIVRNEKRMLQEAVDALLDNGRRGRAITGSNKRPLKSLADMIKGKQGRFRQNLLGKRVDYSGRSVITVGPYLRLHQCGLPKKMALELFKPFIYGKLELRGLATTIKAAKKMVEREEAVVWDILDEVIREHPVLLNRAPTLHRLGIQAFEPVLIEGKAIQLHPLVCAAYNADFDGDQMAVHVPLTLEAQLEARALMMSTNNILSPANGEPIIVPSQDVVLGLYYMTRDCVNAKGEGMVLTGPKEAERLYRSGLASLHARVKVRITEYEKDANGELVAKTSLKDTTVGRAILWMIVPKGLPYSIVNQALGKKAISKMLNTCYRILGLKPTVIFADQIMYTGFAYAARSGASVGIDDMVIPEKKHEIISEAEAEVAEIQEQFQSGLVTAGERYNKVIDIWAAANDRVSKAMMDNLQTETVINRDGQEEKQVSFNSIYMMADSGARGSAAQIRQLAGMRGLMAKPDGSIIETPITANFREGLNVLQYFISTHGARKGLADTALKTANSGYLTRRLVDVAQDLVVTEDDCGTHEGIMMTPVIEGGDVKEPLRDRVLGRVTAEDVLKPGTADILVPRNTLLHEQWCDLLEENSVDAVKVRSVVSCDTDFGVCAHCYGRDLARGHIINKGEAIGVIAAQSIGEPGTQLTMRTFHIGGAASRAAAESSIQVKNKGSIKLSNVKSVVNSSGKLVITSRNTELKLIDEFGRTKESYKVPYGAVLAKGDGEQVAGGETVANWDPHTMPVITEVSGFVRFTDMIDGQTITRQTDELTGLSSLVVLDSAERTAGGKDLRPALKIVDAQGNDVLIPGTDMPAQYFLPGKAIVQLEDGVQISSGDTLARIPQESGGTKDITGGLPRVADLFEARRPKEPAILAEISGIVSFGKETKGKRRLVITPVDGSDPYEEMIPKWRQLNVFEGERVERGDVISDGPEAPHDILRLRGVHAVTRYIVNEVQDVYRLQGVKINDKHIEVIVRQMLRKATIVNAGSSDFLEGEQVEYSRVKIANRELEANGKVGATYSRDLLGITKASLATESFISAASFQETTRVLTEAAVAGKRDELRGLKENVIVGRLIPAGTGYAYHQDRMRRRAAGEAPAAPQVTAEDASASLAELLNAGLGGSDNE
E. coli RNA polymerase, sequence (P0A8V2 whole entry partner): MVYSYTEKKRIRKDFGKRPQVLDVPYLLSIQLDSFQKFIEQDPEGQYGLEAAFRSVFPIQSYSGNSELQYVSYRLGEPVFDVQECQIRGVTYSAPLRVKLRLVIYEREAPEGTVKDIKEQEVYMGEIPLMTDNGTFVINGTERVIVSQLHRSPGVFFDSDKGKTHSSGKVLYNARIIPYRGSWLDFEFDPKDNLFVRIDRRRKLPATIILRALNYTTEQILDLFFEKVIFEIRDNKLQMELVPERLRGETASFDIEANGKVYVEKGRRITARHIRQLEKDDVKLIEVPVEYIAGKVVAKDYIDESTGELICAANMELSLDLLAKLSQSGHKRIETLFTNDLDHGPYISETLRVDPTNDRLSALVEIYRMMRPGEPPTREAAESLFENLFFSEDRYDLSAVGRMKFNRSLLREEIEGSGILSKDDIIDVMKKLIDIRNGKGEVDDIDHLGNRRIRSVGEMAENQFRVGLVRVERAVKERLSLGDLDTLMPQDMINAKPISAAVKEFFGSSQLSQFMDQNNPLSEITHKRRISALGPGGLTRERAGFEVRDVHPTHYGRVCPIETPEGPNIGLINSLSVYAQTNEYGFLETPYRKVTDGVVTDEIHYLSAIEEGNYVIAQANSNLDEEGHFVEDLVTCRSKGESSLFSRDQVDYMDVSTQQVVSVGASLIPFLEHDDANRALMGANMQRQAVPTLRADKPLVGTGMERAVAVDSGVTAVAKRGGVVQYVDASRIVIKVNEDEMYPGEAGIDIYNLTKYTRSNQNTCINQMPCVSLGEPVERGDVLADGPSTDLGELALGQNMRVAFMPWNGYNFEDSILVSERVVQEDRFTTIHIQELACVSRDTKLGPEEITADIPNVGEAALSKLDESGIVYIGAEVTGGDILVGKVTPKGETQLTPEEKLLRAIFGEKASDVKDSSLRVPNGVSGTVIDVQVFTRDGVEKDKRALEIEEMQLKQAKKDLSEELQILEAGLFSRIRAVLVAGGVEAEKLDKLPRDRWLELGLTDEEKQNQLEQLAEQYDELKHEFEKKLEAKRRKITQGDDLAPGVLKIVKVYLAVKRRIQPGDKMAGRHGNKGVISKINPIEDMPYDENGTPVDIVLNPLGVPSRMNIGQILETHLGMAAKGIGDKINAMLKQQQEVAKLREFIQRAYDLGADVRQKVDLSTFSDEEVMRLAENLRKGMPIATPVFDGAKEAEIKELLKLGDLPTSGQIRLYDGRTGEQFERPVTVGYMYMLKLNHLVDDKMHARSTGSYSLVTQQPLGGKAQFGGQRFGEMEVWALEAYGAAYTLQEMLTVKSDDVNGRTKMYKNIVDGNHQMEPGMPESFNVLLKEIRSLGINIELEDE
E. coli RNA polymerase, sequence (P0A7Z4 whole entry partner): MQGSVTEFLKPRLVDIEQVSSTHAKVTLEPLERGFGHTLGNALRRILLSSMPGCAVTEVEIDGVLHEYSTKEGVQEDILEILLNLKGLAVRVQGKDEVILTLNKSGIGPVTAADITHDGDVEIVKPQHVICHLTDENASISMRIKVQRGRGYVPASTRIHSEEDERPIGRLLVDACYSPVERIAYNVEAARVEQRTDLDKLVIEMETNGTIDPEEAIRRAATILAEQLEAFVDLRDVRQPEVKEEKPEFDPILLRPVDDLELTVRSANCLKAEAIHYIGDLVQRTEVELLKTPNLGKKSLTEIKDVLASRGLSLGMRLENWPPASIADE
E. coli RNA polymerase, sequence (P00579 whole entry partner): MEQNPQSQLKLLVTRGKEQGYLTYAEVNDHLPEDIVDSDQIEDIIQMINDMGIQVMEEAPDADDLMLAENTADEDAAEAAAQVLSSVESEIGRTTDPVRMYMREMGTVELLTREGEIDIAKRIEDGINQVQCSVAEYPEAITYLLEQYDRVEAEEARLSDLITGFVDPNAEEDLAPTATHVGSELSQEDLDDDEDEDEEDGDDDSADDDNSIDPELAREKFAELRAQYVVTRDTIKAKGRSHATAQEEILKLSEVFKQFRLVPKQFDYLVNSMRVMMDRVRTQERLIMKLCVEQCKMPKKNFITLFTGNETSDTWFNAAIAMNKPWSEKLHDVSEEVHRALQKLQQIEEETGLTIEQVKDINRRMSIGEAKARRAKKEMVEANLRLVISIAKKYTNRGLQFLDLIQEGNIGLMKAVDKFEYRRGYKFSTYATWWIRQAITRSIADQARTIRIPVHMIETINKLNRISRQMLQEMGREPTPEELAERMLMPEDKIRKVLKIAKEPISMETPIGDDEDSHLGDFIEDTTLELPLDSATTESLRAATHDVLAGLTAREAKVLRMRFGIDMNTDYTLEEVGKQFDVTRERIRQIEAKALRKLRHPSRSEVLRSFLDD

In the case of COC(=O)C(Cc1cnc[nH]1)n1sc2ccccc2c1=O [compound 3, benziso-N(L-histidine methylester)-thiazolone], the stability [1] is reported as “stable at normal conditions”, the “activity compared to the native enzyme” value [2] is reported as 53% and the inhibition of activity [2] is reported as 47%.

— patent US6350879B1, “Benziso-N (L-histidine methylester)-thiazolone, process for the preparation thereof, and use thereof for RNA polymerase inhibition” (Council of Scientific and Industrial Research, priority 2000, dated 2002)
